Where two headings read alike, the source gives them in different places.
Experiments:
[1] = tested on: pERK in MKN1 cells; experiment: cells; format: cell-based; conditions: Homo sapiens, MKN-1, pERK inhibition, In-Cell Western, MKN1 or H358 cells (Table 24 does not say which), 0.5-1 hour incubation
[2] = molecular target: recombinant human SOS1 polypeptide (amino acids 560-1049) (Homo sapiens (Human), UniProt Q07889); experiment: biochemical; format: binding; conditions: read-out: Ki, Inhibition of Labeled Tracer Binding to SOS1
Sequence of recombinant human SOS1 polypeptide (amino acids 560-1049) (Q07889 560-1049): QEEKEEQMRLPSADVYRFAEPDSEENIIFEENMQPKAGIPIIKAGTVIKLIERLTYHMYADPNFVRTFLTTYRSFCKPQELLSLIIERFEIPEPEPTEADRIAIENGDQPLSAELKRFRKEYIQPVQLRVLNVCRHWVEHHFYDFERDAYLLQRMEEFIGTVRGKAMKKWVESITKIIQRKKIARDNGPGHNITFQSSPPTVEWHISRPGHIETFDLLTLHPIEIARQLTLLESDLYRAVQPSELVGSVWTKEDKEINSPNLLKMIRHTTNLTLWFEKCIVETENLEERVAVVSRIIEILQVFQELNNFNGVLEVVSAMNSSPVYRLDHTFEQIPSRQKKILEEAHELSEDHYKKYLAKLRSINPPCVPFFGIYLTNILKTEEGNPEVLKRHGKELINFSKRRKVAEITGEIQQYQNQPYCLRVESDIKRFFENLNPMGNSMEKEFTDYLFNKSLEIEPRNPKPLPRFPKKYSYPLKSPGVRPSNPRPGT

[3] = HTRF displacement, Cy5 labelled tracer, Morrison equation for competitive binding

SMILES	IC50 ([1]; read-out: IC50)	Ki [2, 3]	IC50 [1]	Ki [2]
CCN1CCN(c2cc3c(N[C@H](C)c4cccc(C#N)c4C)nnc(C)c3cn2)CC1 [Example 12-52]	60 nM	1.06 nM		
Cc1c(C#N)cccc1[C@@H](C)Nc1nnc(C)c2cnc(N3CCC(C)(O)CC3)cc12 [Example 12-53]	47 nM	0.83 nM		
Cc1c(C#N)cccc1[C@@H](C)Nc1nnc(C)c2cnc(N3CC(N(C)C)C3)cc12 [Example 12-54]	45 nM	5.37 nM		
COC1(C)CN(c2cc3c(N[C@H](C)c4cccc(C#N)c4C)nnc(C)c3cn2)C1 [Example 12-55]	59 nM	3.1 nM		
Cc1nnc(N[C@H](C)c2cccc(F)c2F)c2cc(N3CC(C)(O)C3)ncc12 [Example 12-56]	301 nM	31.1 nM		
Cc1cc(F)ccc1[C@@H](C)Nc1nnc(C)c2cnc(N3CC(C)(O)C3)cc12 [Example 12-57]	1860 nM	92.2 nM		
Cc1nnc(N[C@H](C)c2ccc(F)cc2F)c2cc(N3CC4CC(C3)O4)ncc12 [Example 12-58]	38 nM	14.6 nM		
Cc1c(C(F)F)cccc1[C@@H](C)Nc1nnc(C)c2cnc(N3CCN(c4cnn(C)c4)CC3)cc12 [Example 12-59]	19 nM	0.47 nM		
Cc1nnc(N[C@H](C)c2cccc(C(F)(F)F)c2F)c2cc(N3C[C@H]4CC[C@@H]3CN4C)ncc12 [Example 12-60]	24 nM	0.25 nM		
Cc1nnc(N[C@H](C)c2cccc(C(F)(F)F)c2F)c2cc(N3CC(C)(O)C3)ncc12 [Example 12-61]	21 nM	1.68 nM		
Cc1nnc(N[C@H](C)c2cccc(C(F)(F)F)c2F)c2cc(N3CCC(N(C)C)CC3)ncc12 [Example 12-64]	29 nM	0.51 nM		
Cc1nnc(N[C@H](C)c2cccc(C(F)(F)F)c2F)c2cc(N3CCNCC3)ncc12 [Example 12-65]	16 nM	0.72 nM		
Cc1nnc(N[C@H](C)c2cccc(C(F)(F)F)c2F)c2cc(N3CC(N(C)C)C3)ncc12 [Example 12-66]	77 nM	2.1 nM		
COCCN1C[C@H]2CC[C@@H]1CN2c1cc2c(N[C@H](C)c3cccc(C#N)c3C)nnc(C)c2cn1 [Example 12-70]	13 nM	0.68 nM		
Cc1c(C#N)cccc1[C@@H](C)Nc1nnc(C)c2cnc(N3CC4(COCCN4C)C3)cc12 [Example 12-72]	19 nM	4.39 nM		
Cc1nnc(N[C@H](C)c2cccc(F)c2F)c2cc(N3CCN4CCOC[C@@H]4C3)ncc12 [Example 12-75]	87 nM	14 nM		
Cc1c(C#N)cccc1[C@@H](C)Nc1nnc(C)c2cnc(N3C[C@H]4CC[C@@H]3CN4CC(F)(F)F)cc12 [Example 12-76]	56 nM	1.06 nM		
Cc1c(C#N)cccc1[C@@H](C)Nc1nnc(C)c2cnc(N3CC4(CCN(CC(F)(F)F)C4)C3)cc12 [Example 12-78]	94 nM	2.66 nM		
Cc1cc(F)ccc1[C@@H](C)Nc1nnc(C)c2cnc(N3CCN4CCOC[C@@H]4C3)cc12 [Example 12-79]	173 nM	36.3 nM		
Cc1nnc(N[C@H](C)c2cccc(F)c2Cl)c2cc(N3CC(C)(O)C3)ncc12 [Example 12-80]	295 nM	37.4 nM		

SMILES	IC50 ([1]; read-out: IC50)	Ki [2, 3]	IC50 [1]	Ki [2]
Cc1c(F)cccc1[C@@H](C)Nc1nnc(C)c2cnc(N3CC(C)(N(C)C)C3)cc12 [Example 12-82]	330 nM	20.9 nM		
Cc1nnc(N[C@H](C)c2cccc(F)c2F)c2cc(N3CC(C)(N(C)C)C3)ncc12 [Example 12-83]	749 nM	50.6 nM		
Cc1cc(F)ccc1[C@@H](C)Nc1nnc(C)c2cnc(N3CC4CC(C3)O4)cc12 [Example 12-84]	280 nM	43.4 nM		
Cc1nnc(N[C@H](C)c2cccc(F)c2Cl)c2cc(N3CC(C)(N(C)C)C3)ncc12 [Example 12-85]	602 nM	27.6 nM		
Cc1nnc(N[C@H](C)c2cccc(C(F)F)c2F)c2cc(N3CC(C)(O)C3)ncc12 [Example 12-101]	22 nM	1.45 nM		
Cc1c(C#N)cc(F)cc1[C@@H](C)Nc1nnc(C)c2cnc(N3CCN4CCOC[C@@H]4C3)cc12 [Example 12-103]	107 nM	10.9 nM		
Cc1c(C#N)cc(F)cc1[C@@H](C)Nc1nnc(C)c2cnc(N3CCC(C)(N(C)C)CC3)cc12 [Example 12-104]	92 nM	6.1 nM		
Cc1c(C#N)cc(F)cc1[C@@H](C)Nc1nnc(C)c2cnc(N3C[C@H]4C[C@@H]3CO4)cc12 [Example 12-105]	97 nM	10.9 nM		
Cc1c(C#N)cc(F)cc1[C@@H](C)Nc1nnc(C)c2cnc(N3CC4CC(C3)O4)cc12 [Example 12-106]	114 nM	11.1 nM		
Cc1nnc(N[C@H](C)c2cccc(C(F)F)c2F)c2cc(N3CC(C)(N(C)C)C3)ncc12 [Example 12-115]	19 nM	1.66 nM		
Cc1cc(F)ccc1[C@@H](C)Nc1nnc(C)c2cnc(N3CC(C)(N(C)C)C3)cc12 [Example 12-124]	856 nM	64.5 nM		
Cc1cccc([C@@H](C)Nc2nnc(C)c3cnc(N4CCN5CCOC[C@@H]5C4)cc23)c1F [Example 12-131]	28 nM	3.6 nM		
Cc1cccc([C@@H](C)Nc2nnc(C)c3cnc(N4CC(C)(O)C4)cc23)c1F [Example 12-132]	76 nM	11 nM		
Cc1cccc([C@@H](C)Nc2nnc(C)c3cnc(N4CC(C)(N(C)C)C4)cc23)c1F [Example 12-133]	97 nM	11.5 nM		
Cc1c([C@@H](C)Nc2nnc(C)c3ccc(O[C@H]4CCOC4)cc23)cccc1C(F)(F)F [Example 13-1, 4-methyl-N—((R)-1-(2-methyl-3-(trifluoromethyl)phenyl)ethyl)-7-(((S)-tetrahydrofuran-3-yl)oxy)phthalazin-1-amine]	149 nM	2.77 nM		
Cc1c([C@@H](C)Nc2nnc(C)c3ccc(OC4COC4)cc23)cccc1C(F)(F)F [Example 13-2, (R)-4-methyl-N-(1-(2-methyl-3-(trifluoromethyl)phenyl)ethyl)-7-(oxetan-3-yloxy)phthalazin-1-amine]	2070 nM	191 nM		
Cc1c(C#N)cccc1[C@@H](C)Nc1nnc(C)c2ccc(O[C@H]3CCOC3)cc12 [Example 13-3]	195 nM	12.2 nM		
Cc1c([C@@H](C)Nc2nnc(CN(C)C)c3ccc(N4CCOCC4)cc23)cccc1C(F)(F)F [Example 14-1, (R)-4-((dimethylamino)methyl)-N-(1-(2-methyl-3-(trifluoromethyl)phenyl)ethyl)-7-morpholinophthalazin-1-amine]			68 nM	8.97 nM
Cc1c(C#N)cccc1[C@@H](C)Nc1nnc(CN(C)C)c2cnc(N3C[C@H]4C[C@@H]3CO4)cc12 [Example 14-4, 3-((R)-1-((7-((1R,4R)-2-oxa-5-azabicyclo[2.2.1]heptan-5-yl)-4-((dimethylamino)methyl)pyrido[3,4-d]pyridazin-1-yl)amino)ethyl)-2-methylbenzonitrile]	89 nM	8.55 nM		
